Measured values: patent US20260224536A1, “ARYL HETEROCYCLIC KV1.3 INHIBITOR, PREPARATION METHOD THEREFOR, AND USE THEREOF” (SHANGHAI SHENSHI WISE TECHNOLOGY CO., LTD., priority 2022, published 2026)
pIC50: −log10 of the molar value.

Assays:
Type in all cases: cell-based
[1] = biological target: Kv1.3 potassium channel (Homo sapiens, UniProt P22001); assay: Whole-cell patch-clamp assay for inhibitory activity against Kv1.3 (peak current); details: HEK293 cells stably expressing Kv1.3, patch-clamp
Procedure, shortened: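 Whole-cell currents evoked by a step from −80 mV holding to +40 mV for 500 ms at room temperature. Concentrations perfused cumulatively, low to high, each for 5 min or until steady state. Peak current normalised to each cell's compound-free control; IC50 from nonlinear fit, ≥3 cells per concentration.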

[2] = biological target: T1, Kv1.1 potassium channel (Homo sapiens, UniProt Q09470); assay: Whole-cell patch-clamp assay for inhibitory activity against Kv1.1 (steady state current); details: HEK293 cells stably expressing Kv1.1, patch-clamp, read-out: IC50 for inhibition of Kv1.1
T1 construct: expressed in transfected cells
Method: (§1) HEK293 cells stably expressing Kv1.X (Kv1.1, Kv1.2, Kv1.3, Kv1.4, Kv1.5) potassium channels were cultured in DMEM medium containing 10% fetal bovine serum and 800 μg/mL G418 (geneticin) at a culture temperature of 37° C. and a carbon dioxide concentration of 5%.
(§2) The extracellular fluid contained […], 3.5 mM KCl, 1 mM MgCl2·6H2O, 2 mM CaCl2·2H2O, 10 mM D-glucose, 10 mM HEPES, 1.25 mM NaH2PO4·2H2O, and the pH was adjusted to 7.4 with NaOH. The intracellular fluid contained 20 mM KCl, 115 mM K-Aspartic, 1 mM MgCl2·6H2O, 5 mM EGTA, 10 mM HEPES, 2 mM Na2-ATP, and the pH was adjusted to 7.2 with KOH.
(§3) The voltage stimulation protocol for recording whole-cell Kv1.X potassium currents via patch-clamp was as follows. After formation of a whole-cell seal, the cell membrane voltage was clamped at −80 mV, and then stepped to +40 mV for 500 ms. […] Then, a slow capacitance compensation was given, and the membrane capacitance and series resistance were recorded. […]
(§4) Once the whole-cell recorded Kv1.X current stabilized, drug administration was started. […] For each cell, the current detected in the compound-free extracellular liquid was used as its own control group. […]
(§5) and then the inhibition rate corresponding to each drug concentration was calculated
(§6) Subsequently, the mean, standard deviation (SD), and standard error (SE) were calculated for the inhibition rate corresponding to each concentration. […]

[3] = biological target: T2, Kv1.2 potassium channel (Homo sapiens, UniProt P16389); assay: Whole-cell patch-clamp assay for inhibitory activity against Kv1.2 (steady state current); details: HEK293 cells stably expressing Kv1.2, patch-clamp, read-out: IC50 for inhibition of Kv1.2
T2 construct: expressed in transfected cells
Method: as §1, §2, §3, §4, §5, §6

[4] = biological target: Kv1.4 potassium channel (Homo sapiens, UniProt P22459); assay: Whole-cell patch-clamp assay for inhibitory activity against Kv1.4 (peak current); details: HEK293 cells stably expressing Kv1.4, patch-clamp, read-out: IC50 for inhibition of Kv1.4
Method: as §1, §2, §3, §4, §5, §6

[5] = biological target: Kv1.5 potassium channel (Homo sapiens, UniProt P22460); assay: Whole-cell patch-clamp assay for inhibitory activity against Kv1.5 (steady state current); details: HEK293 cells stably expressing Kv1.5, patch-clamp, read-out: IC50 for inhibition of Kv1.5
Method: as §1, §2, §3, §4, §5, §6

[6] = biological target: T3, hERG potassium channel (Homo sapiens, UniProt Q12809); assay: Whole-cell voltage clamp assay for inhibitory activity against hERG; details: CHO cells stably expressing hERG, peak tail current at -50 mV, read-out: IC50 for inhibition of hERG
T3 construct: expressed in transfected cells
Method: CHO cells stably expressing hERG were cultured in 35 mm diameter cell culture dishes at 37° C. in a 5% CO2 incubator. The cells were passaged at a ratio of 1:5 every 48 h. The culture medium recipe was as follows: 90% F12 (Invitrogen), 10% fetal bovine serum (Gibco), 100 µg/mL G418 (Invitrogen), and 100 µg/mL Hygromycin B (Invitrogen). On the day of the test, the cell culture fluid was aspirated, and the cells were rinsed once with the extracellular fluid. […] The digestion solution was then aspirated, and the cells were resuspended with the extracellular fluid and transferred to an experimental dish for electrophysiological recording for later use. hERG potassium channel currents were recorded at room temperature by the whole-cell voltage clamp technique in the CHO cells stably expressing hERG potassium channels. Glass microelectrodes were formed by pulling a glass electrode blank (BF150-86-10, Sutter) using a puller. The tip resistance after perfusion with the electrode internal solution was about 2-5 MΩ. […] The clamping voltage and data recording were controlled and recorded by a computer with the pClamp software, with a sampling frequency of 10 kHz and a filtering frequency of 2 kHz. […] This voltage stimulation was applied every 5 s, and after the hERG potassium currents were determined to be stable (for 1 min), the drug administration process was started. […]

Kv1.5 potassium channel, sequence (P22460 whole entry): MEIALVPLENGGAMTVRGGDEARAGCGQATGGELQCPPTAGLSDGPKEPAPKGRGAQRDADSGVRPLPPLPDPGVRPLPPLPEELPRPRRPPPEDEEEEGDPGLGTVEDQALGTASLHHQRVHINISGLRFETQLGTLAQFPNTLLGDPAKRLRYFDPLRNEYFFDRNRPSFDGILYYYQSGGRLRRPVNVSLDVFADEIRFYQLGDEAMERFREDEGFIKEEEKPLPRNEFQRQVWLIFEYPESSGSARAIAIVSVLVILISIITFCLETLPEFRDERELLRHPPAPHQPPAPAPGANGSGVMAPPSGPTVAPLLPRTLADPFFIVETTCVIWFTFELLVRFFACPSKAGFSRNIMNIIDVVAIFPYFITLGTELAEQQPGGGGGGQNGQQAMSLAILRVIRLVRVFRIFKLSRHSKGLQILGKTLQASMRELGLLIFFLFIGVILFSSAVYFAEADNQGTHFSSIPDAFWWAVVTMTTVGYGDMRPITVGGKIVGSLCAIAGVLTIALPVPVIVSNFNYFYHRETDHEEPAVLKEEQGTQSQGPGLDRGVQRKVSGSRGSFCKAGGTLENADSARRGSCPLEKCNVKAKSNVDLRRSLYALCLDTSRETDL
Kv1.3 potassium channel, sequence (P22001 whole entry, the tested form may be a part): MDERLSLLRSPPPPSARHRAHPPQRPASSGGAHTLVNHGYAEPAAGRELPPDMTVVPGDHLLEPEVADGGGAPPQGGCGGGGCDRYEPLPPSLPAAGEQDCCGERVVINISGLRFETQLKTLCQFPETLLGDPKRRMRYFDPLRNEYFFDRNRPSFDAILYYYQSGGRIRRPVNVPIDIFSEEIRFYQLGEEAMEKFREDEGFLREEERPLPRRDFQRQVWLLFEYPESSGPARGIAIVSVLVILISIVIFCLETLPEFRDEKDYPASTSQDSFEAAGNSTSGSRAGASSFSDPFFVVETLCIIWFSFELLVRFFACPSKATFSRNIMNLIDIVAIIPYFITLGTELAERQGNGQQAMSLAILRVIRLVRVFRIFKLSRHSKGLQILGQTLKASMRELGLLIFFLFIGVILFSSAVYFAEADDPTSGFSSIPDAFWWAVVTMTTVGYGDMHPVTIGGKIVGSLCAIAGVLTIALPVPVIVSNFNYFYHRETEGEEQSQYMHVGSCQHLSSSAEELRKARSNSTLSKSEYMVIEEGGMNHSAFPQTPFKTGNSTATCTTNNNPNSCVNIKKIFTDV
T2 sequence (P16389 whole entry): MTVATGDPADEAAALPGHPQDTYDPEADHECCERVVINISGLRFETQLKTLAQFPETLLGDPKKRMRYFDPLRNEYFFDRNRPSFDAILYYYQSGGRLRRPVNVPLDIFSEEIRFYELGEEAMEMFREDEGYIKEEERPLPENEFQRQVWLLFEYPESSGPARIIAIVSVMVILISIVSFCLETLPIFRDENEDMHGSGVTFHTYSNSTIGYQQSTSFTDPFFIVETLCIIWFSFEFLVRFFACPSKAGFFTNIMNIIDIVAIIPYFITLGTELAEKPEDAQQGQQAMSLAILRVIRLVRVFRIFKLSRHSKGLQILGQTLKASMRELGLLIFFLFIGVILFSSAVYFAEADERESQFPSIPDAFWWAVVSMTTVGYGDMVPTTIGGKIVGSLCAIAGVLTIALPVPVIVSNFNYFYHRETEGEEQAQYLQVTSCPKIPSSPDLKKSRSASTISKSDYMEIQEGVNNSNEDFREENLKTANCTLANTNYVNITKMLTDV
T1 sequence (Q09470 whole entry): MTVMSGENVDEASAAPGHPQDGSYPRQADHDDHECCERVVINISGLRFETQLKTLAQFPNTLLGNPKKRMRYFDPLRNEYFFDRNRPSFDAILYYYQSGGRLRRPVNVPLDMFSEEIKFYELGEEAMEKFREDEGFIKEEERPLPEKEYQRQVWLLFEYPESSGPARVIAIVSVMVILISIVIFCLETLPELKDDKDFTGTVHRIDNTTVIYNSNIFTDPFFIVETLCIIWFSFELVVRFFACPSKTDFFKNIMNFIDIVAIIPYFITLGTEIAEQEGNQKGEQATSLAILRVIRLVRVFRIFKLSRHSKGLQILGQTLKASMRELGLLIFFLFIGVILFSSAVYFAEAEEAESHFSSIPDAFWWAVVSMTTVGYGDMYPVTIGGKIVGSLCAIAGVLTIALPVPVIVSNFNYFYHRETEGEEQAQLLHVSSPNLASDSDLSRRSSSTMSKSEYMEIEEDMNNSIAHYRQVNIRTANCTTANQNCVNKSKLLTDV
Kv1.4 potassium channel, sequence (P22459 whole entry): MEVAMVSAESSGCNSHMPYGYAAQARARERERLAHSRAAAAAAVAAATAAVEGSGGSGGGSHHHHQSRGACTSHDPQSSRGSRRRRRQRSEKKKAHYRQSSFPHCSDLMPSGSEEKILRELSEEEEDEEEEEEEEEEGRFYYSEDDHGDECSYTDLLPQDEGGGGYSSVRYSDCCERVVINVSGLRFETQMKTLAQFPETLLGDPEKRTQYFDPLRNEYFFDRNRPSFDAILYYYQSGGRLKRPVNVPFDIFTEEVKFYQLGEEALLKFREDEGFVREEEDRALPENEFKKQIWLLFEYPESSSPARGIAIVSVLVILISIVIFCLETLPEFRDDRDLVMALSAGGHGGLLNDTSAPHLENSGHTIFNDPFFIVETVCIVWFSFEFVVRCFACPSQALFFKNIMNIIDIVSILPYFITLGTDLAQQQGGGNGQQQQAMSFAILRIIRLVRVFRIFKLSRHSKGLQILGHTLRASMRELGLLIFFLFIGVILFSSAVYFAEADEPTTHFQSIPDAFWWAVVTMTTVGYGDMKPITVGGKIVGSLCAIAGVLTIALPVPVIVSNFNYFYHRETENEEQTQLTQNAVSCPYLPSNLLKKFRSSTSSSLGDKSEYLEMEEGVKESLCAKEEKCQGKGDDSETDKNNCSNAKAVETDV
T3 sequence (Q12809 whole entry): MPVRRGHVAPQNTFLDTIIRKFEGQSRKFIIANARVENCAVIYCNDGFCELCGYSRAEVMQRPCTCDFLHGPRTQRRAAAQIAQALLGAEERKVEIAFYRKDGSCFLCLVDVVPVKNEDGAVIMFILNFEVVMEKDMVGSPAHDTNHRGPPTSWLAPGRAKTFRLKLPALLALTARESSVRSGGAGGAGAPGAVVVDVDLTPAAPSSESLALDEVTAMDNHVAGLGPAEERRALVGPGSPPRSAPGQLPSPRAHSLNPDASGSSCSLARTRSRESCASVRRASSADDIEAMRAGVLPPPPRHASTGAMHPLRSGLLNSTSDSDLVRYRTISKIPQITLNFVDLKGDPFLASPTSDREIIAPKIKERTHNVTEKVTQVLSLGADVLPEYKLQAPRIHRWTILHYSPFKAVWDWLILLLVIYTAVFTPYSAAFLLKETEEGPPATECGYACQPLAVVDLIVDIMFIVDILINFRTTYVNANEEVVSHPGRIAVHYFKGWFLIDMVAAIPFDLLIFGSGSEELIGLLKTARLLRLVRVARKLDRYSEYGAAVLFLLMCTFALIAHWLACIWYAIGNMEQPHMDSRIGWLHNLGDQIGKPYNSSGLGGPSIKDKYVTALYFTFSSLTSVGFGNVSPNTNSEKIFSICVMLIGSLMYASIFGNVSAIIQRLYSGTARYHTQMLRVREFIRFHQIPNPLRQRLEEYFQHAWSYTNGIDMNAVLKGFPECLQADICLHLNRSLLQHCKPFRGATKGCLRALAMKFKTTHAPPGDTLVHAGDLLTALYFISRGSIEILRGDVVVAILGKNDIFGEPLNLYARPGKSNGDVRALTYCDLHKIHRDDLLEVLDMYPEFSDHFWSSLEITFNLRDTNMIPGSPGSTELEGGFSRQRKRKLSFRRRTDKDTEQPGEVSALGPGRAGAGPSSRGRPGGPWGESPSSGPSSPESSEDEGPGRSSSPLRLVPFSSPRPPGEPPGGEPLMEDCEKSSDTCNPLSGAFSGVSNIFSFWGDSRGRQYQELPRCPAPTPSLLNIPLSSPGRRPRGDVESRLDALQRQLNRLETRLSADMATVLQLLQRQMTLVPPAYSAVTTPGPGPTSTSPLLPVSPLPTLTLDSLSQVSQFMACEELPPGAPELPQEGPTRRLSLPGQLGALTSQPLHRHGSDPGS

| Structure (SMILES) | pIC50 [1] | pIC50 [2] | pIC50 [3] | pIC50 [4] | pIC50 [5] | pIC50 [6] |
| --- | --- | --- | --- | --- | --- | --- |
| OCc1nnc2n1C[C@H](c1c(O)ccc(Cl)c1Cl)C2 [Example 2, (S)-3,4-dichloro-2-(3-(hydroxymethyl)-6,7-dihydro-5H-pyrrolo[2,1-c][1,2,4]triazol-6-yl)phenol] | 7.55 | < 4.00 | < 4.00 | < 4.52 | < 4.00 | < 4.52 |
| Oc1ccc(Cl)c(Cl)c1[C@@H]1Cc2nnc([C@@H]3CCOC3)n2C1 [Example 54, 3,4-Dichloro-2-((S)-3-((S)-tetrahydrofuran-3-yl)-6,7-dihydro-5H-pyrrolo[2,1-c][1,2,4]triazol-6-yl)phenol] | 8.11 | < 4.00 | < 4.00 | < 4.52 | < 4.00 | < 4.52 |
